These results are taken from ChEMBL document CHEMBL3232922, “Discovery and SAR of 6-alkyl-2,4-diaminopyrimidines as histamine H₄ receptor antagonists” (J Med Chem, 2014).

Structures are written as SMILES.

For assay [1], the target named is T1, Histamine H4 receptor (Homo sapiens, UniProt Q9H3N8). The assay is described as follows: Displacement of [3H]histamine from human recombinant histamine H4 receptor expressed in SK-N-MC cells after 45 mins by competition binding analysis. Type of assay: cell-based. (In a radioligand displacement assay an active substance lowers the binding of a labelled ligand.)

Assay [2] addresses T1, Histamine H4 receptor. The experiment in a line: Agonist activity at human H4 receptor. The note with it: read-out: EC50.
Assay [3] addresses T1, Histamine H4 receptor. The experiment in a line: Antagonist activity at human histamine H4 receptor expressed in SK-N-MC cells assessed as reduction of histamine-induced inhibition of cAMP-mediated beta-galactosidase reporter gene activity treated 10 mins prior to histamine challenge by microplate reader analysis. The format is functional, cell-based. As to conditions: read-out: pA2 (converted).

T1 sequence (Q9H3N8 whole entry): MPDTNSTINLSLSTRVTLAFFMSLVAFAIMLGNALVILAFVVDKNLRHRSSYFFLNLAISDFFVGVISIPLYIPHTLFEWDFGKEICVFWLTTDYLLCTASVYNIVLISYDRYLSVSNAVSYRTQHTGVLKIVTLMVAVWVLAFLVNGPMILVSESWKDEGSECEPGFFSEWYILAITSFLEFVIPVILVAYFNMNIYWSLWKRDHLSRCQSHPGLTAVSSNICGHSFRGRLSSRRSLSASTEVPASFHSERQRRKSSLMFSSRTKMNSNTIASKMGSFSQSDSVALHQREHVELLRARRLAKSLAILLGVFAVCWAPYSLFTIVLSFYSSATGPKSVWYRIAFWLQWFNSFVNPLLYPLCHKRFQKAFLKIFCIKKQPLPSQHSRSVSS

A word on the Ki: it is the equilibrium dissociation constant of an inhibitor or competing ligand from its target. `CN[C@@H]1CCN(c2nc(N)nc3c2oc2ncc(Cl)cc23)C1`: the Ki in assay [1] was 9 nM.
On to `CN[C@@H]1CCN(c2cc(Cl)nc(N)n2)C1`, for which, in assay [1], the inhibition constant Ki is greater than 10000 nM.
The same measure, in the same setting: then `CN1CCN(c2ncnc3c2oc2ccc(Cl)cc23)CC1`, with 5 nM.
The EC50 is the midpoint of the concentration-response curve. As for `CN1C[C@@H]2CN(c3cc(C4CCCC4)nc(N)n3)C[C@@H]2C1`, the EC50 in assay [2] is greater than 10000 nM. In addition, the Kb in assay [3] was 20 nM.
Take `CC(C)(C)c1cc(N2CC[C@@H](N)C2)nc(N)n1`: in assay [1], the Ki was 9.4 nM. Further, the EC50 in assay [2] was greater than 10000 nM. Besides, the Kb in assay [3] was 5.01 nM.
The corresponding values for `CN[C@@H]1CCN(c2cc(C3CCCCC3)nc(N)n2)C1` are 2.3 nM, greater than 10000 nM and less than 0.1 nM.
For the compound `Nc1nc(Cc2ccccc2)cc(N2CC[C@@H](N)C2)n1`, the inhibition constant (Ki) in assay [1] came to 100 nM.
On to `Nc1nc(C2CCCC2)cc(N2C[C@H]3CCN[C@H]3C2)n1`, for which, in assay [1], the Ki is 2.9 nM. Besides, the concentration for a half-maximal effect (EC50) in assay [2] was greater than 10000 nM. For the same compound, the Kb in assay [3] is 0.1 nM.
The like results for `CN1CCN(c2cc(C3CCCC3)nc(N)n2)CC1` were, in that order, 1.4 nM, greater than 10000 nM and 0.126 nM.
Take `CCCCc1cc(N2CC[C@@H](NC)C2)nc(N)n1`: the inhibitory constant (Ki) in assay [1] worked out at 1.5 nM. Also, the EC50 in assay [2] was greater than 10000 nM. In assay [3], the Kb was 3.98 nM.
The corresponding values for `Nc1nc(C2CCCC2)cc(N2C[C@H]3NCCO[C@@H]3C2)n1` (racemic) are 56 nM, greater than 10000 nM and 126 nM.
Regarding `CN[C@@H]1CCN(c2nc(N)nc3c2CCCC3)C1`, the 50% effective concentration (EC50) in assay [2] is greater than 10000 nM. Further, in assay [3], the Kb is 25.1 nM.
The corresponding values for `CN[C@@H]1CCN(c2cc(C3CC3)nc(N)n2)C1` are greater than 10000 nM and 7.94 nM.
For `CN[C@H]1CCN(c2cc(C3CCCC3)nc(N)n2)C1`, the inhibitory constant (Ki) in assay [1] was 25 nM. Further, in assay [2], the concentration for a half-maximal effect (EC50) was greater than 10000 nM.
Consider `Nc1nc(C2CCCC2)cc(N2C[C@@H]3NCCO[C@@H]3C2)n1` (relative stereo), for which, in assay [1], the Ki was determined as 520 nM.
As to `CN[C@H]1CN(c2cc(C3CCCC3)nc(N)n2)C[C@@H]1O` (relative stereo), in assay [1], the Ki came to 30 nM. Also, the EC50 in assay [2] is greater than 10000 nM. Also, the Kb in assay [3] is 10 nM.
